# Assay results: patent publication US20090149482A1, “STEREOCHEMICALLY DEFINED DIPEPTIDE ESTERS OF ANTIVIRAL AGENTS FOR ENHANCED OCULAR TREATMENT” (priority 2001, published 2009)
# Where two headings read alike, the source gives them in different places.
# Assays:
# [1] = system: rabbit corneal cell line (SIRC); details: SIRC cells
# Caco-2 cell suspension = details: Caco-2, pH 7.4
# physchem = details: buffer, pH 5.6
# in vitro [2] = details: human
# in vitro [3] = details: human, Caco-2, pH 7.4
# in vitro [4] = details: human; remark: listed apart in the source
# in vitro [5] = details: male, New Zealand albino, rabbit, tissue homogenate
# HSV-1 strain McKrae = assay: HSV-1 epithelial keratitis rabbit model, topical treatment, SLE scores; type: in vivo; details: 14 days post-inoculation, 1% topical 5 times per day
# Excerpt: (§1) The rabbit eye is an excellent model to study acute HSV-1 epithelial keratitis. Also, spontaneous and induced ocular HSV-1 shedding and corneal epithelial disease in rabbits has been used as a model of human ocular HSV-1 reactivation and recurrence. HSV-1 strain McKrae was used in studies for epithelial keratitis. HSV-1 strain RE was used for studies of HSV stromal keratitis.
# i) Epithelial Keratitis: A group of ten rabbits was used to study each compound. Both eyes of all rabbits were used. An aqueous vehicle (like a placebo) and one positive control were obtained using 1% TFT (Viroptic®). Each compound at 1% concentration (TFT=33 mM, Gly-Gly-ACV=26.6 mM, Val-Val-ACV=18.6 mM) were applied (50 μl) topically 5 times per day every two hours starting at 8:00 a.m. and ending at 4:00 p.m. The treatment began on the 3rd post-inoculation day and continued for 5 consecutive days. Slit-lamp examinations were performed once every day for 8 days and thereafter once every other day until lesions resolved.
# HSV-1 strain RE = assay: HSV-1 stromal keratitis rabbit model, topical treatment, SLE scores; type: in vivo; details: 13 days post-inoculation, 1% topical
# Excerpt: as §1
# ii) Stromal Keratitis: The experiment is similar to the part (i) experiment as far as the treatment cycles for all experimental drugs (TFT and Val-Val-ACV) are concerned. The effect of Val-Val-ACV on stromal keratitis induced by intrastromal injection with a high (20 μl of a 1×10^7 pfu/ml stock) titer of HSV-1RE strain was compared to that of TFT. Each compound at 1% concentration (TFT=33 mM, Val-Val-ACV=18.6 mM) was applied topically. The same scoring as noted in Table 4 is used for stromal keratitis. Emphasis is placed on the stromal edema and visibility into the aqueous chamber and the visualization of the pupil and iris.
# A group of ten rabbits were used to study each compound. Both eyes of all rabbits were treated. Three to four groups of 10 rabbits are used in one experiment. This includes vehicle control, TFT, and the newly synthesized antiviral Val-Val-ACV.
# [6] = system: human fibroblast foreskin cells (HFF)
# [7] = rabbits, i.v. infusion, aqueous humor
# [8] = rat, in vivo, po
smiles,measurement,setting,value
"CC(C)[C@H](N)C(=O)OCCOCn1cnc2c(=O)[nH]c(N)nc21 [Val-ACV, L-Valine-acyclovir]",% viable cells,[1]; 5 mM,89.3±5.1%
same,10^2 × kobs,Caco-2 cell suspension; human,0.56 ± 0.038 min^−1mg^−1 protein
same,inhibition in transport in presence of Gly-Sar,Caco-2 monolayers,47 % inhibition
same,half-life,physchem,~72 h
same,CC50,"in vitro [2]; CC50 (concentration required to inhibit cell proliferation by 50%), HSV-1",> 277 µM
same,CC50,"in vitro [2]; CC50, EBV column",> 138 µM
same,CC50,"in vitro [2]; CC50, HCMV column",> 277 µM
same,CC50,"in vitro [2]; CC50, HSV-2 column",> 277 µM
same,CC50,"in vitro [2]; CC50, VZV column",> 100 µM
same,half-life,in vitro [3],2.06 ± 0.138 h
same,Papp,"in vitro [4]; Caco-2, pH 6",3.01 ± 0.21 ×10⁻⁶ cm/s
same,Papp,"in vitro [4]; Caco-2, pH 7.4",5.67 ± 1.13 ×10⁻⁶ cm/s
same,half-life,"in vitro [5]; corneal half-life, corneal tissue",1.42 h
same,half-life,"in vitro [5]; t1/2 of conversion to ACV, corneal tissue homogenate",~1.42 h
"CC(C)C(N)C(=O)NC(C(=O)OCCOCn1cnc2c(=O)[nH]c(N)nc21)C(C)C (stereo not drawn) [Val-Val-ACV, Val-Valacyclovir]",Concentration required to achieve an SLE Score of 0.3,HSV-1 strain McKrae,18.6 mM
same,Concentration required to achieve an SLE Score of 0.2,HSV-1 strain RE,18.6 mM
same,percent survival,[1]; 0.25 mM,86.3%
same,percent survival,[1]; 0.5 mM,85.8%
same,percent survival,[1]; 1 mM,87.0%
same,percent survival,[1]; 2 mM,87.0%
same,% viable cells,[1]; 5 mM,90.1±4.6%
same,percent survival,[1]; 5 mM,99.3%
same,percent survival,[1]; 10 mM,54.03%
same,CC50,[6]; EBV column,> 93.1 µM
same,CC50,[6]; HCMV column,> 186 µM
same,CC50,[6]; HSV-2 column,> 186 µM
same,CC50,[6]; VZV column,> 186 µM
same,CC50,"[6]; read-out: CC50 (concentration required to inhibit cell proliferation by 50%), HSV-1",> 186 µM
same,10^2 × kobs,Caco-2 cell suspension,2.14 ± 0.44 min^−1mg^−1 protein
same,t1/2,Caco-2 cell suspension; human,0.553 ± 0.115 h
same,MRT(aqueous),[7],*188.39 min
same,amino acid intermediate metabolite after oral administration,[8],no intact amino acid intermediate metabolite VACV could be detected
